Assay results taken from the NIST ThermoML archive (doi:10.1021/je700021f).
Numbers after ± are expanded uncertainties.

Experiment: xn = mol fraction of the nth substance listed
Details: 101 kPa, Liquid, Pulse-echo method

CCCCCCCCCCl [1-chlorononane] + CCCCCCCCC
speed of sound (358.15 K, x2 = 0.7): 994.9 ± 2.9 m/s | speed of sound (358.15 K, x2 = 0.8): 982.6 ± 2.9 m/s | speed of sound (358.15 K, x2 = 0.85): 981 ± 2.9 m/s | speed of sound (358.15 K, x2 = 0.9): 976.3 ± 2.9 m/s | speed of sound (363.15 K, x2 = 0): 1048.5 ± 3 m/s | speed of sound (363.15 K, x2 = 0.1): 1029.5 ± 2.9 m/s | speed of sound (363.15 K, x2 = 0.3): 1009.6 ± 2.9 m/s | speed of sound (363.15 K, x2 = 0.5): 994.7 ± 2.9 m/s | speed of sound (363.15 K, x2 = 0.7): 976.8 ± 2.9 m/s | speed of sound (363.15 K, x2 = 0.8): 964.2 ± 2.8 m/s | speed of sound (363.15 K, x2 = 0.85): 962.4 ± 2.8 m/s | speed of sound (363.15 K, x2 = 0.9): 957.8 ± 2.8 m/s | speed of sound (368.15 K, x2 = 0): 1032.2 ± 2.9 m/s | speed of sound (368.15 K, x2 = 0.1): 1012.3 ± 2.9 m/s | speed of sound (368.15 K, x2 = 0.3): 992.2 ± 2.9 m/s | speed of sound (368.15 K, x2 = 0.5): 976.9 ± 2.9 m/s | speed of sound (368.15 K, x2 = 0.7): 958.9 ± 2.8 m/s | speed of sound (368.15 K, x2 = 0.8): 945.8 ± 2.8 m/s | speed of sound (368.15 K, x2 = 0.85): 943.9 ± 2.8 m/s | speed of sound (368.15 K, x2 = 0.9): 939.2 ± 2.8 m/s | speed of sound (373.15 K, x2 = 0): 1015.9 ± 2.9 m/s | speed of sound (373.15 K, x2 = 0.1): 995.2 ± 2.9 m/s | speed of sound (373.15 K, x2 = 0.3): 974.9 ± 2.9 m/s | speed of sound (373.15 K, x2 = 0.5): 959.2 ± 2.8 m/s | speed of sound (373.15 K, x2 = 0.7): 941.1 ± 2.8 m/s | speed of sound (373.15 K, x2 = 0.8): 927.7 ± 2.8 m/s | speed of sound (373.15 K, x2 = 0.85): 925.5 ± 2.8 m/s | speed of sound (373.15 K, x2 = 0.9): 920.7 ± 2.8 m/s | speed of sound (378.15 K, x2 = 0): 999.1 ± 2.9 m/s | speed of sound (378.15 K, x2 = 0.1): 978.3 ± 2.9 m/s | speed of sound (378.15 K, x2 = 0.3): 957.8 ± 2.8 m/s | speed of sound (378.15 K, x2 = 0.5): 941.6 ± 2.8 m/s | speed of sound (378.15 K, x2 = 0.7): 923.5 ± 2.8 m/s | speed of sound (378.15 K, x2 = 0.8): 909.6 ± 2.8 m/s | speed of sound (378.15 K, x2 = 0.85): 907.2 ± 2.8 m/s | speed of sound (378.15 K, x2 = 0.9): 902.3 ± 2.8 m/s | speed of sound (383.15 K, x2 = 0): 982.7 ± 2.9 m/s | speed of sound (383.15 K, x2 = 0.1): 961.5 ± 2.8 m/s | speed of sound (383.15 K, x2 = 0.3): 940.8 ± 2.8 m/s | speed of sound (383.15 K, x2 = 0.5): 924.1 ± 2.8 m/s | speed of sound (383.15 K, x2 = 0.7): 906 ± 2.8 m/s | speed of sound (383.15 K, x2 = 0.8): 891.6 ± 2.7 m/s | speed of sound (383.15 K, x2 = 0.85): 889 ± 2.7 m/s | speed of sound (383.15 K, x2 = 0.9): 883.9 ± 2.7 m/s | speed of sound (388.15 K, x2 = 0): 966.4 ± 2.8 m/s | speed of sound (388.15 K, x2 = 0.1): 944.8 ± 2.8 m/s | speed of sound (388.15 K, x2 = 0.3): 924 ± 2.8 m/s | speed of sound (388.15 K, x2 = 0.5): 906.7 ± 2.8 m/s | speed of sound (388.15 K, x2 = 0.7): 888.7 ± 2.7 m/s | speed of sound (388.15 K, x2 = 0.8): 873.8 ± 2.7 m/s | speed of sound (388.15 K, x2 = 0.85): 870.9 ± 2.7 m/s | speed of sound (388.15 K, x2 = 0.9): 865.6 ± 2.7 m/s | speed of sound (393.15 K, x2 = 0): 950.3 ± 2.8 m/s | speed of sound (393.15 K, x2 = 0.1): 928.3 ± 2.8 m/s | speed of sound (393.15 K, x2 = 0.3): 907.3 ± 2.8 m/s | speed of sound (393.15 K, x2 = 0.5): 889.4 ± 2.7 m/s | speed of sound (393.15 K, x2 = 0.7): 871.5 ± 2.7 m/s | speed of sound (393.15 K, x2 = 0.8): 856.1 ± 2.7 m/s | speed of sound (393.15 K, x2 = 0.85): 852.9 ± 2.7 m/s | speed of sound (393.15 K, x2 = 0.9): 847.3 ± 2.7 m/s | speed of sound (398.15 K, x2 = 0): 934.3 ± 2.8 m/s | speed of sound (398.15 K, x2 = 0.1): 911.8 ± 2.8 m/s | speed of sound (398.15 K, x2 = 0.3): 890.7 ± 2.7 m/s | speed of sound (398.15 K, x2 = 0.5): 872.1 ± 2.7 m/s | speed of sound (398.15 K, x2 = 0.7): 854.5 ± 2.7 m/s | speed of sound (398.15 K, x2 = 0.8): 838.5 ± 2.7 m/s | speed of sound (398.15 K, x2 = 0.85): 835 ± 2.7 m/s | speed of sound (398.15 K, x2 = 0.9): 829.1 ± 2.7 m/s | speed of sound (403.15 K, x2 = 0): 918.4 ± 2.8 m/s | speed of sound (403.15 K, x2 = 0.1): 895.5 ± 2.7 m/s | speed of sound (403.15 K, x2 = 0.3): 874.3 ± 2.7 m/s | speed of sound (403.15 K, x2 = 0.5): 855 ± 2.7 m/s | speed of sound (403.15 K, x2 = 0.7): 837.6 ± 2.7 m/s | speed of sound (403.15 K, x2 = 0.8): 821 ± 2.7 m/s | speed of sound (403.15 K, x2 = 0.85): 817.2 ± 2.6 m/s | speed of sound (403.15 K, x2 = 0.9): 810.9 ± 2.6 m/s | speed of sound (408.15 K, x2 = 0): 902.6 ± 2.8 m/s | speed of sound (408.15 K, x2 = 0.1): 879.3 ± 2.7 m/s | speed of sound (408.15 K, x2 = 0.3): 858 ± 2.7 m/s | speed of sound (408.15 K, x2 = 0.5): 838 ± 2.7 m/s | speed of sound (408.15 K, x2 = 0.7): 820.9 ± 2.6 m/s | speed of sound (408.15 K, x2 = 0.8): 803.6 ± 2.6 m/s | speed of sound (408.15 K, x2 = 0.85): 799.5 ± 2.6 m/s | speed of sound (408.15 K, x2 = 0.9): 792.7 ± 2.6 m/s | speed of sound (413.15 K, x2 = 0): 887 ± 2.7 m/s | speed of sound (413.15 K, x2 = 0.1): 863.3 ± 2.7 m/s | speed of sound (413.15 K, x2 = 0.3): 841.9 ± 2.7 m/s | speed of sound (413.15 K, x2 = 0.5): 821.1 ± 2.6 m/s | speed of sound (413.15 K, x2 = 0.7): 804.3 ± 2.6 m/s | speed of sound (413.15 K, x2 = 0.8): 786.3 ± 2.6 m/s | speed of sound (413.15 K, x2 = 0.85): 781.9 ± 2.6 m/s | speed of sound (413.15 K, x2 = 0.9): 774.6 ± 2.6 m/s | speed of sound (418.15 K, x2 = 0): 871.4 ± 2.7 m/s | speed of sound (418.15 K, x2 = 0.1): 847.4 ± 2.7 m/s | speed of sound (418.15 K, x2 = 0.3): 825.9 ± 2.7 m/s | speed of sound (418.15 K, x2 = 0.5): 804.3 ± 2.6 m/s | speed of sound (418.15 K, x2 = 0.7): 787.8 ± 2.6 m/s | speed of sound (418.15 K, x2 = 0.8): 769.2 ± 2.6 m/s | speed of sound (418.15 K, x2 = 0.85): 764.4 ± 2.6 m/s | speed of sound (418.15 K, x2 = 0.9): 756.6 ± 2.6 m/s | speed of sound (423.15 K, x2 = 0): 856 ± 2.7 m/s | speed of sound (423.15 K, x2 = 0.1): 831.5 ± 2.6 m/s | speed of sound (423.15 K, x2 = 0.3): 810 ± 2.6 m/s | speed of sound (423.15 K, x2 = 0.5): 787.5 ± 2.6 m/s | speed of sound (423.15 K, x2 = 0.7): 771.6 ± 2.6 m/s | speed of sound (423.15 K, x2 = 0.8): 752.2 ± 2.6 m/s | speed of sound (423.15 K, x2 = 0.85): 747 ± 2.6 m/s | speed of sound (423.15 K, x2 = 0.9): 738.6 ± 2.5 m/s
